Source: US4407806A, “Fungicidal, herbicidal and plant growth regulating pyridyl-containing ethers” (Chevron Research Company, priority 1981, dated 1983)

Experiments:
Assay type in all cases: in vivo
[1] = system: grape downy mildew organism Plasmopara viticola; assay: Grape Downy Mildew control (detached grape leaves); settings: vs untreated check, read-out: Fungicidal Activity Control %, Grape D.M.
[2] = system: Tomato Late Blight organism Phytophthora infestans; assay: whole plant or invertebrate; settings: 168 h, read-out: Fungicidal Activity Control %, Tomato L.B.
[3] = system: celery late blight organism Septoria apii; assay: whole plant or invertebrate; settings: 336 h, read-out: Fungicidal Activity Control %, Celery L.B.
[4] = system: Bean Powdery Mildew organism Erisiphe polygoni; assay: Bean Powdery Mildew control; settings: 240 h, 10 days, vs untreated check, read-out: Fungicidal Activity Control %, Bean P.M.
Procedure: The compounds of the invention were tested for the control of the Bean Powdery Mildew organism […] polygoni. Seedling bean plants were sprayed with a 250 ppm solution of the test compound in acetone, water and a nonionic emulsifier. The sprayed plants were then inoculated 1 day later with organism. […] The percent disease control provided by a given test compound was based on the percent disease reduction relative to the untreated check plants.

[5] = system: Crabgrass (Digitaria sanguinalis); assay: Pre-emergent herbicidal test; settings: 504 h, pre-emergence, 33 micrograms/cm^2, 3 weeks, 0-to-100 scale, read-out: Herbicidal Activity Pre-Emergence % Control, Crab Grass
Procedure: (§1) An acetone solution of the test compound was prepared by mixing 750 mg of the compound, 220 mg of a nonionic surfactant and 25 ml of acetone. This solution was added to approximately 125 ml of water containing 156 mg of surfactant.
(§2) Seeds of the test vegetation were planted in a pot of […] and the test solution was sprayed uniformly onto the soil surface at a dose of 33 micrograms/cm^2. The pot was watered and placed in a greenhouse. […] At the end of this period, the herbicidal effectiveness of the compound was rated based on the physiological observations. A 0-to-100 scale was used, 0 representing no phytotoxicity, 100 representing complete kill.

[6] = system: Lambsquarter (Chenopodium album); assay: Pre-emergent herbicidal test; settings: 504 h, pre-emergence, 33 micrograms/cm^2, 3 weeks, 0-to-100 scale, read-out: Herbicidal Activity Pre-Emergence % Control, L'Qtr.
Procedure: as §1, §2

[7] = system: Mustard (Brassica arvensis); assay: Pre-emergent herbicidal test; settings: 504 h, pre-emergence, 33 micrograms/cm^2, 3 weeks, 0-to-100 scale
Procedure: as §1, §2

[8] = system: Pigweed (Amaranthus retraflexus); assay: Pre-emergent herbicidal test; settings: 504 h, pre-emergence, 33 micrograms/cm^2, 3 weeks, 0-to-100 scale
Procedure: as §1, §2

Soybean [9] = assay: Pre-emergent herbicidal test; settings: Glycine max, 504 h; pre-emergence; 33 micrograms/cm^2; 3 weeks; 0-to-100 scale; read-out: Herbicidal Activity Pre-Emergence % Control, Soybean
Procedure: as §1, §2

[10] = system: Watergrass (Echinochloa crusgalli); assay: Pre-emergent herbicidal test; settings: Echinochloa crus-galli, 504 h; pre-emergence; 33 micrograms/cm^2; 3 weeks; 0-to-100 scale; read-out: Herbicidal Activity Pre-Emergence % Control, Water Grass
Procedure: as §1, §2

Wild Oats (Avena fatura) [11] = assay: Pre-emergent herbicidal test; settings: 504 h, pre-emergence, 33 micrograms/cm^2, 3 weeks, 0-to-100 scale
Procedure: as §1, §2

[12] = system: Crabgrass (Digitaria sanguinalis); assay: Post-emergent herbicidal test; settings: 504 h, post-emergence, 33 micrograms/cm^2, 3 weeks, 0-to-100 scale, read-out: Herbicidal Activity Post-Emergence % Control, Crab Grass
[13] = system: Lambsquarter (Chenopodium album); assay: Post-emergent herbicidal test; settings: 504 h, post-emergence, 33 micrograms/cm^2, 3 weeks, 0-to-100 scale, read-out: Herbicidal Activity Post-Emergence % Control, L'Qtr.
[14] = system: Mustard (Brassica arvensis); assay: Post-emergent herbicidal test; settings: 504 h, post-emergence, 33 micrograms/cm^2, 3 weeks, 0-to-100 scale
[15] = system: Pigweed (Amaranthus retraflexus); assay: Post-emergent herbicidal test; settings: 504 h, post-emergence, 33 micrograms/cm^2, 3 weeks, 0-to-100 scale
Soybean [16] = assay: Post-emergent herbicidal test; settings: Glycine max, 504 h, post-emergence, 33 micrograms/cm^2, 3 weeks, 0-to-100 scale, read-out: Herbicidal Activity Post-Emergence % Control, Soybean
[17] = system: Watergrass (Echinochloa crusgalli); assay: Post-emergent herbicidal test; settings: Echinochloa crus-galli, 504 h, post-emergence, 33 micrograms/cm^2, 3 weeks, 0-to-100 scale, read-out: Herbicidal Activity Post-Emergence % Control, Water Grass
Wild Oats (Avena fatura) [18] = assay: Post-emergent herbicidal test; settings: 504 h, post-emergence, 33 micrograms/cm^2, 3 weeks, 0-to-100 scale
Idaho pinto bean plants = assay: Axillary Bud Growth Inhibition Of Pinto Bean Plants; settings: 288 h; 625-ppm; twelve days after treatment; vs untreated check; read-out: Bud Inhib (percent inhibition of axillary bud growth)
Procedure: Compounds of this invention were tested to determine their plant-growth-retarding effects on axillary bud growth of pinto beans.
Idaho pinto bean plants (13-16 days old) having monofoliate leaves fully developed and first trifoliates beginning to unfold were used. All growth 5 mm above the monofoliate leaf node was removed with forceps 1 to 4 hours prior to treatment with the test compounds. Four plants were used for each test compound.
A 625-ppm solution of the test compound in a 2% aqueous acetone solution containing a small amount of a nonionic surfactant was sprayed onto the pinto bean plants until runoff. After drying, the treated plants were transferred to a greenhouse maintained at 20°-23° C. and watered at regular intervals. Twelve days after treatment, the bud growth at the axil of the monofoliate leaf was determined and expressed as percent inhibition of axillary bud growth as compared to untreated check plants.

Cotton plants = assay: Cotton Regrowth; settings: Gossypium hirsutum, 13 to 18 days, 100% is total inhibition, read-out: Regrowth (percent inhibition of cotton regrowth)
Procedure: Compounds of this invention were tested to determine their plant-growth regulating effects on cotton leaf regrowth.
Cotton plants, 4 to 5 weeks old, containing 4 true leaves above the cotyledonary leaves are employed. Growth beyond the second true leaf was removed. Within 24 hours the plants are sprayed with a 2000 ppm solution of the test compound. After spraying, the plants are transferred to a greenhouse maintained at 85° F. (±5° F.) and incubated there for from 13 to 18 days. The plants during this period are sub-irrigated in 1/4" of water.
After this period, regrowth is determined as a percent inhibition of auxiliary bud regrowth--100% is total inhibition while 0% is no inhibition.

[19] = system: tomato Early Blight organism, Alternaria solani conidia; assay: Tomato Early Blight control; settings: 288 h, about 12 days in greenhouse, vs untreated check, read-out: Fungicidal Activity Control %, Tomato E.B.
Procedure: Compounds of the invention were tested for the control of the tomato Early Blight organism, Alternaria solani conidia. Tomato (variety Bonny Best) seedlings of 6 to 7 weeks old were used. The tomato plants were sprayed with a 250 ppm solution of the test compound in an acetone-and-water solution containing a small amount of a nonionic emulsifier. The sprayed plants were inoculated one day later with the organism, placed in the environmental chamber and incubated at […] and 100% relative humidity for 24 hours. Following the incubation, the plants were maintained in a greenhouse for about 12 days. Percent diseases control was based on the percent disease development on untreated check plants.

| SMILES | pest or weed control at 250 ppm [1] | pest or weed control at 250 ppm [2] | pest or weed control at 250 ppm [3] | pest or weed control at 250 ppm [4] | pest or weed control at 33 µg/cm2 [5] | pest or weed control at 33 µg/cm2 [6] | pest or weed control at 33 µg/cm2 [7] | pest or weed control at 33 µg/cm2 [8] | plant injury at 33 µg/cm2 (Soybean [9]) | pest or weed control at 33 µg/cm2 [10] | pest or weed control at 33 µg/cm2 (Wild Oats (Avena fatura) [11]) | pest or weed control at 5000 ppm, 33 µg/cm2 [12] | pest or weed control at 5000 ppm, 33 µg/cm2 [13] | pest or weed control at 5000 ppm, 33 µg/cm2 [14] | pest or weed control at 5000 ppm, 33 µg/cm2 [15] | plant injury at 5000 ppm, 33 µg/cm2 (Soybean [16]) | pest or weed control at 5000 ppm, 33 µg/cm2 [17] | pest or weed control at 5000 ppm, 33 µg/cm2 (Wild Oats (Avena fatura) [18]) | pest or weed control at 625 µg/mL (Idaho pinto bean plants) | inhibition at 2000 ppm (Cotton plants) | also measured |
| --- | --- | --- | --- | --- | --- | --- | --- | --- | --- | --- | --- | --- | --- | --- | --- | --- | --- | --- | --- | --- | --- |
| OC(c1cccnc1)c1ccc(Cl)cc1Cl (stereo not shown) [Compound 2, 3-pyridyl-2,4-dichlorophenylcarbinol] | 25% | 0% | 31% | 100% | 0% | 0% | 0% | 0% | 0% | 0% | 0% | 0% | 0% | 0% | 0% | 0% | 0% | 0% | 0% | 0% | – |
| c1ccc(-c2ccc(COC(c3ccccc3)c3cccnc3)cc2)cc1 (stereo not shown) [Compound 11, 3-pyridylphenylcarbinol 4-phenylbenzylether] | 13% | 0% | 47% | 100% | – | – | – | – | – | – | – | – | – | – | – | – | – | – | 0% | – | pest or weed control at 250 ppm [19]: 5% |
| Clc1ccc(COC(c2cccnc2)c2ccc(Cl)cc2Cl)c(Cl)c1 (stereo not shown) [Compound 1, 3-pyridyl-2,4-dichlorophenylcarbinol 2,4-dichlorobenzylether] | 0% | 4% | 88% | 100% | 0% | 0% | 0% | 0% | 0% | 0% | 0% | 0% | 20% | 30% | 30% | 20% | 0% | 0% | 85% | 55% | – |
